One data set deals with T1, σ1-receptor (Cavia porcellus, UniProt Q60492).
T1 construct: guinea pig brains were homogenized; from tissue; host or cells: guinea pig brain membranes
The data set can be described thus: Sigma-1 receptor binding, [3H](+)-pentazocine, brain membranes. The arrangement: species or system guinea pig. On the procedure: Brain membrane preparation and binding assays for the σ1-receptor were performed as described (DeHaven-Hudkins et al., 1992) with some modifications. In brief, guinea pig brains were homogenized in 10 vols. (w/v) of Tris-HCl 50 mM 0.32 M sucrose, pH 7.4, with a Kinematica Polytron PT 3000 at 15000 r.p.m. for 30 s. The homogenate was centrifuged at 1000 g for […] at 4° C. and the supernatants collected and centrifuged again at 48000 g for 15 min at 4° C. The pellet was resuspended in 10 volumes of Tris-HCl buffer (50 mM, pH 7.4), incubated at 37° C. for 30 min, and centrifuged at 48000 g for 20 min at 4° C. Following this, the pellet was resuspended in fresh Tris-HCl buffer (50 mM, pH 7.4) and stored on ice until use.
Each assay tube contained 10 μL of [^3H](+)-pentazocine (final concentration of 0.5 nM), 900 μL of the tissue suspension to a final assay volume of 1 mL and a final tissue concentration of approximately 30 mg tissue net weight/mL. […] All tubes were incubated at 37° C. for 150 min before termination of the reaction by rapid filtration over Schleicher & Schuell GF 3362 glass fibre filters [previously soaked in a solution of 0.5% polyethylenimine for at least 1 h]. Filters were then washed with four times with 4 mL of cold Tris-HCl buffer (50 mM, pH 7.4). Following addition of scintillation cocktail, the samples were allowed to equilibrate overnight. The amount of bound radioactivity was determined by liquid scintillation spectrometry using a Wallac Winspectral 1414 liquid scintillation counter. Protein concentrations were determined by the method of Lowry et al. (1951).

We go through 43 molecules from patent publication US8470867B2, “Sigma receptor inhibitors” (Laboratorios Del Dr. Esteve, S.A., priority 2004, dated 2013).

Counter-ions that a name gives are not always drawn.

T1 sequence (Q60492 whole entry): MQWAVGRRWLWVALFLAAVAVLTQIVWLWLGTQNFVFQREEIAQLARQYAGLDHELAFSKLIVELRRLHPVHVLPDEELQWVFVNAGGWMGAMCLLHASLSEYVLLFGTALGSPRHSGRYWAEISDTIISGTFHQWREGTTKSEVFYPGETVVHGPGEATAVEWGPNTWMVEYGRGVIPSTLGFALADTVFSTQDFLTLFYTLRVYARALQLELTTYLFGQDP

As to `COc1ccc(-n2nc(OCCN3CCOCC3)cc2C)cc1.Cl`, the melting point (usually the temperature, or range, at which the solid turns liquid) lay within 169 to 173 °C.
Same read-out and setting: in the case of `Cl.Clc1ccc(-n2nc(OCCn3ccnc3)cc2-c2ccccc2)cc1Cl` it was 147 to 155 °C; in that of `CCN(CC)CCOc1nn(-c2ccc(Cl)c(Cl)c2)c(C)c1C.Cl`, 134 to 136 °C; in that of `Cc1c(OCCN2CCCC2)nn(-c2ccc(Cl)c(Cl)c2)c1C.Cl`, 146 to 148 °C.
Same read-out and setting: in the case of `Cc1c(OCCCN2CCCC2)nn(-c2ccc(Cl)c(Cl)c2)c1C.Cl` it was 155 to 157 °C; in that of `Cl.Clc1ccc(-n2ccc(OCCCCN3CCOCC3)n2)cc1Cl`, 165 to 169 °C.
Still for that read-out and setting: under `C[C@@H]1CN(CCCCOc2ccn(-c3ccc(Cl)c(Cl)c3)n2)C[C@H](C)O1.Cl` stands 149 to 154 °C.
Molecule `Cl.Clc1ccc(-n2ccc(OCCCCN3CCCCC3)n2)cc1Cl` showed a melting point of 156 to 161 °C.
Still for that read-out and setting: under `Cl.Clc1ccc(-n2ccc(OCCCCN3CCCC3)n2)cc1Cl` stands 181 to 186 °C; under `CCN(CC)CCCCOc1ccn(-c2ccc(Cl)c(Cl)c2)n1.O=C(O)C(=O)O`, 130 to 135 °C.
Still for that read-out and setting: under `COCCN(C)CCCCOc1ccn(-c2ccc(Cl)c(Cl)c2)n1.O=C(O)C(=O)O` stands 97 to 100 °C; under `Clc1ccc(-n2ccc(OCCCCN3CCSCC3)n2)cc1Cl.O=C(O)C(=O)O`, 175 to 177 °C.
For the molecule `CC(=O)c1c(OCCN2CCOCC2)nn(-c2ccc(Cl)c(Cl)c2)c1C.O=C(O)C(=O)O`, the melting point is 188 to 192 °C.
On the same count and under the same terms, under `CC(=O)c1c(OCCN2CCCC2)nn(-c2ccc(Cl)c(Cl)c2)c1C.O=C(O)C(=O)O` stands 159 to 162 °C; under `CC(=O)c1c(OCCN2CCCCC2)nn(-c2ccc(Cl)c(Cl)c2)c1C.O=C(O)C(=O)O`, 158 to 161 °C.
On the same count and under the same terms, in the case of `CCN(CC)CCOc1nn(-c2ccc(Cl)c(Cl)c2)c(C)c1C(C)=O.O=C(O)C(=O)O` it was 147 to 149 °C; in that of `Clc1ccc(-n2ccc(OCCN3CCOCC3)n2)cc1Cl` (as salt: hydrochloride) [Example 37, 4-{2-[1-(3,4-dichlorophenyl)-1H-pyrazol-3-yloxy]ethyl}morpholine], 162 to 166 °C; in that of `Clc1ccc(-n2ccc(OCCN3CCCC3)n2)cc1Cl` (as salt: hydrochloride) [Example 39, 1-(3,4-dichlorophenyl)-3-[2-(pyrrolidin-1-yl)ethoxy]-1H-pyrazole], 172 to 176 °C.
`Clc1ccc(-n2ccc(OCCN3CCCCC3)n2)cc1Cl` (as salt: hydrochloride) [Example 40, 1-{2-[1-(3,4-dichlorophenyl)-1H-pyrazol-3-yloxy]ethyl}piperidine] returned a melting point of 172 to 177 °C.
Still for that read-out and setting: under `Clc1ccc(-n2ccc(OCCCN3CCCC3)n2)cc1Cl` (as salt: hydrochloride) [Example 41, 1-(3,4-dichlorophenyl)-3-[3-(pyrrolidin-1-yl)propoxy]-1H-pyrazole] stands 156 to 159 °C.
As for `CCN(CC)CCOc1cc(C)n(-c2ccc(Cl)c(Cl)c2)n1` [Example 2, 2-[1-(3,4-Dichlorophenyl)-5-methyl-1H-pyrazol-3-yloxy]-N,N-diethylethanamine hydrochloride], the inhibition (commonly the drop in the measured response relative to a control, in per cent) at 0.1 µM on σ1-receptor (10^−7 M) was 95.1%.
As to `Cc1cc(OCCN2CCCC2)nn1-c1ccc(Cl)c(Cl)c1.Cl` [Example 3, 1-(3,4-Dichlorophenyl)-5-methyl-3-[2-(pyrrolidin-1-yl)ethoxy]-1H-pyrazole hydrochloride], the melting point was > 280 °C (dec.). For the same molecule, the inhibition at 0.1 µM on σ1-receptor (10^−7 M) was 102%.
The matching figures for `Cc1cc(OCCCN2CCCC2)nn1-c1ccc(Cl)c(Cl)c1.Cl` [Example 4, 1-(3,4-Dichlorophenyl)-5-methyl-3-[3-(pyrrolidin-1-yl)propoxy]-1H-pyrazole hydrochloride]: 149 to 155 °C and 98%.
The matching figures for `Cc1cc(OCCN2CCCCC2)nn1-c1ccc(Cl)c(Cl)c1` [Example 5, 1-{2-[1-(3,4-dichlorophenyl)-5-methyl-1H-pyrazol-3-yloxy]ethyl}piperidine]: 119 to 122 °C and 108%.
Take `Cc1cc(OCCn2ccnc2)nn1-c1ccc(Cl)c(Cl)c1` [Example 6, 1-{2-[1-(3,4-dichlorophenyl)-5-methyl-1H-pyrazol-3-yloxy]ethyl}-1H-imidazole]: the melting point was in the range of 111 to 112 °C.
For `Cc1cc(OCCN2CCN(C)CC2)nn1-c1ccc(Cl)c(Cl)c1` [Example 8, 1-{2-[1-(3,4-Dichlorophenyl)-5-methyl-1H-pyrazol-3-yloxy]ethyl}-4-methylpiperazine], the inhibition at 0.1 µM on σ1-receptor (10^−7 M) turned out to be 94.5%.
The same measure, in the same setting: in the case of `CCOC(=O)N1CCN(CCOc2cc(C)n(-c3ccc(Cl)c(Cl)c3)n2)CC1` [Example 9, Ethyl 4-{2-[1-(3,4-dichlorophenyl)-5-methyl-1H-pyrazol-3-yloxy]ethyl}piperazine carboxylate] it was 99.5%; in that of `COc1ccc(-n2nc(OCCCN3CCCC3)cc2C)cc1` [Example 13, 1-(4-Methoxyphenyl)-5-methyl-3-[3-(pyrrolidin-1-yl)propoxy]-1H-pyrazole], 50.9%; in that of `COc1ccc(-n2nc(OCCN3CCCCC3)cc2C)cc1` [Example 14, 1-[2-(1-(4-Methoxyphenyl)-5-methyl-1H-pyrazol-3-yloxy)ethyl]piperidine], 48.9%.
Still for that read-out and setting: under `Clc1ccc(-n2nc(OCCCN3CCCC3)cc2-c2ccccc2)cc1Cl` [Example 18, 1-(3,4-Dichlorophenyl)-5-phenyl-3-[3-(pyrrolidin-1-yl)propoxy]-1H-pyrazole] stands 58.6%; under `Clc1ccc(-n2nc(OCCN3CCCCC3)cc2-c2ccccc2)cc1Cl` [Example 19, 1-{2-[1-(3,4-Dichlorophenyl)-5-phenyl-1H-pyrazol-3-yloxy]ethyl}piperidine], 80.1%.
Consider `Cc1cc(OCCCCN2CCCC2)nn1-c1ccc(Cl)c(Cl)c1` [Example 23, 1-(3,4-Dichlorophenyl)-5-methyl-3-[4-(pyrrolidin-1-yl)butoxy]-1H-pyrazole], for which the affinity at σ1-receptor corresponds to a Ki of 4.4 nM. For the same molecule, at σ1-receptor (10^−7 M), the inhibition at 0.1 µM was 96.4%.
The matching figures for `CCN(CC)CCCCOc1cc(C)n(-c2ccc(Cl)c(Cl)c2)n1` [Example 27, 4-[1-(3,4-Dichlorophenyl)-5-methyl-1H-pyrazol-3-yloxy]-N,N-diethylbutan-1-amine]: 4.1 nM and 99.2%.
Regarding `Cc1cc(OCCCCN2CCc3ccccc3C2)nn1-c1ccc(Cl)c(Cl)c1` [Example 30, 2-{4-[1-(3,4-dichlorophenyl)-5-methyl-1H-pyrazol-3-yloxy]butyl}-1,2,3,4-tetrahydroisoquinoline], on σ1-receptor (10^−7 M), the inhibition at 0.1 µM was found to be 83%.
The same measure, in the same setting: in the case of `CCN(CC)CCOc1cc(C(C)C)n(-c2ccc(Cl)c(Cl)c2)n1` [Example 32, 2-[1-(3,4-Dichlorophenyl)-5-isopropyl-1H-pyrazol-3-yloxy]-N,N-diethylethanamine] it was 72.7%.
For the molecule `CC(C)c1cc(OCCN2CCCCC2)nn1-c1ccc(Cl)c(Cl)c1` [Example 35, 1-{2-[1-(3,4-Dichlorophenyl)-5-isopropyl-4H-pyrazol-3-yloxy]ethyl}piperidine], the affinity at σ1-receptor corresponds to a Ki of 8.6 nM. In addition, the inhibition at 0.1 µM at σ1-receptor (10^−7 M) was 102%.
Take `Clc1ccc(-n2ccc(OCCN3CCOCC3)n2)cc1Cl` [Example 37, 4-{2-[1-(3,4-dichlorophenyl)-1H-pyrazol-3-yloxy]ethyl}morpholine]: the inhibition at 0.1 µM on σ1-receptor (10^−7 M) came out at 108%.
The same measure, in the same setting: in the case of `CCN(CC)CCOc1ccn(-c2ccc(Cl)c(Cl)c2)n1` [Example 38, 2-[1-(3,4-dichlorophenyl)-1H-pyrazol-3-yloxy]N,N-diethylethanamine] it was 108%; in that of `Clc1ccc(-n2ccc(OCCN3CCCC3)n2)cc1Cl` [Example 39, 1-(3,4-dichlorophenyl)-3-[2-(pyrrolidin-1-yl)ethoxy]-1H-pyrazole], 110%.
Regarding `Clc1ccc(-n2ccc(OCCN3CCCCC3)n2)cc1Cl` [Example 40, 1-{2-[1-(3,4-dichlorophenyl)-1H-pyrazol-3-yloxy]ethyl}piperidine], the inhibition at 0.1 µM at σ1-receptor (10^−7 M) was determined as 110%.
The molecule `Cc1c(OCCN2CCCCC2)nn(-c2ccc(Cl)c(Cl)c2)c1C` [Example 48, 1-(2-(1-(3,4-Dichlorophenyl)-4,5-dimethyl-1H-pyrazol-3-yloxy)ethyl)piperidine] came in with a melting point of 64 to 67 °C.
As for `Cc1cc(OCCN2CCOCC2)nn1-c1ccc2ccccc2c1` [Example 61, 4-{2-[5-Methyl-1-(naphthalen-2-yl)-1H-pyrazol-3-yloxy]ethyl}morpholine], the “% Binding σ1” value at σ1-receptor (10^−7 M) worked out at 93.6%.
In the case of `CCN(CC)CCOc1cc(C)n(-c2ccc3ccccc3c2)n1` [Example 62, N,N-Diethyl-2-[5-methyl-1-(naphthalen-2-yl)-1H-pyrazol-3-yloxy]ethanamine], the inhibition at 0.1 µM on σ1-receptor (10^−7 M) turned out to be 69.2%.
